Data published in PubChem BioAssay AID2060508 (Molecular Pharmacology Branch, DTP, NCI, 2025).
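Further: spheroids exposed to compounds for seven days; 100% = DMSO vehicle control viability.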

Each compound was assayed on 454973-116-R2-J3-PDC spheroids, viability, % test/control (assay: Anticancer human tumor 454973-116-R2-J3-PDC patient-derived pancreatic carcinoma cell line growth inhibition [GQUAD]). Conditions: second compound 3.16 µM; first compound 0.0316 µM; stronger effect = lower value; spheroids with HUVEC and MSC.
In short: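 Viability of tumor cells grown as complex spheroids with endothelial and stromal cells, exposed to drug combinations. Top concentration at or near clinical Cmax (else 10 microM), diluted in half-log increments.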
Compound `Cn1ncnc1[C@H]1c2n[nH]c(=O)c3cc(F)cc(c23)N[C@@H]1c1ccc(F)cc1` + Cc1cnc(CNC(=O)c2c(=O)c3ccc(N4CCCN(C)CC4)nc3n3c2sc2ccccc23)cn1 has a viability, T/C of 58.5%.

Same assay, conditions: second compound 3.16 µM; first compound 0.0999 µM; stronger effect = lower value; spheroids with HUVEC and MSC
For `Cn1ncnc1[C@H]1c2n[nH]c(=O)c3cc(F)cc(c23)N[C@@H]1c1ccc(F)cc1` + Cc1cnc(CNC(=O)c2c(=O)c3ccc(N4CCCN(C)CC4)nc3n3c2sc2ccccc23)cn1, the viability, T/C was 57.1%.

Same assay, conditions: second compound 3.16 µM; first compound 0.1 µM; stronger effect = lower value; spheroids with HUVEC and MSC
With `COc1ncnc(C2CC2)c1-c1ncc2cnn(Cc3ccc(-c4nc(C(F)(F)F)cn4C(C)C)cc3)c2n1` + Cc1[nH]c2ccc(F)cc2c1-c1nc2c3cccnc3c3ncccc3c2[nH]1 the viability, T/C was 97.3%.
In the case of `CC(C)n1c(=O)n(C)c2cnc3cc(F)c(-c4ccc(OCCCN5CCCCC5)nc4)cc3c21` + Cc1cnc(CNC(=O)c2c(=O)c3ccc(N4CCCN(C)CC4)nc3n3c2sc2ccccc23)cn1, the viability, T/C is reported as 65.8%.
Work on `CC1COCCN1c1cc(-c2ccnn2C)c2ccnc(-c3ccn[nH]3)c2n1` (stereo unspecified) + Cc1cnc(CNC(=O)c2c(=O)c3ccc(N4CCCN(C)CC4)nc3n3c2sc2ccccc23)cn1 yielded a viability, T/C of 34.5%.
`CC1COCCN1c1cc(C2(S(C)(=N)=O)CC2)nc(-c2ccnc3[nH]ccc23)n1` (stereo unspecified) + Cc1cnc(CNC(=O)c2c(=O)c3ccc(N4CCCN(C)CC4)nc3n3c2sc2ccccc23)cn1 was tested, and the viability, T/C was 66.1%.

Same assay, conditions: second compound 3.16 µM; first compound 0.316 µM; stronger effect = lower value; spheroids with HUVEC and MSC
With `COc1ncnc(C2CC2)c1-c1ncc2cnn(Cc3ccc(-c4nc(C(F)(F)F)cn4C(C)C)cc3)c2n1` + Cc1[nH]c2ccc(F)cc2c1-c1nc2c3cccnc3c3ncccc3c2[nH]1 the viability, T/C was 99.4%.
With `CC(C)n1c(=O)n(C)c2cnc3cc(F)c(-c4ccc(OCCCN5CCCCC5)nc4)cc3c21` + Cc1cnc(CNC(=O)c2c(=O)c3ccc(N4CCCN(C)CC4)nc3n3c2sc2ccccc23)cn1 the viability, T/C was 56.1%.
In the case of `CC1COCCN1c1cc(-c2ccnn2C)c2ccnc(-c3ccn[nH]3)c2n1` (stereo unspecified) + Cc1cnc(CNC(=O)c2c(=O)c3ccc(N4CCCN(C)CC4)nc3n3c2sc2ccccc23)cn1, the viability, T/C is reported as 31.5%.
Work on `CC1COCCN1c1cc(C2(S(C)(=N)=O)CC2)nc(-c2ccnc3[nH]ccc23)n1` (stereo unspecified) + Cc1cnc(CNC(=O)c2c(=O)c3ccc(N4CCCN(C)CC4)nc3n3c2sc2ccccc23)cn1 yielded a viability, T/C of 59.4%.
In the case of `Cn1ncnc1[C@H]1c2n[nH]c(=O)c3cc(F)cc(c23)N[C@@H]1c1ccc(F)cc1` + Cc1cnc(CNC(=O)c2c(=O)c3ccc(N4CCCN(C)CC4)nc3n3c2sc2ccccc23)cn1, the viability, T/C is reported as 53.6%.

Same assay, conditions: second compound 3.16 µM; first compound 1 µM; stronger effect = lower value; spheroids with HUVEC and MSC
For `COc1ncnc(C2CC2)c1-c1ncc2cnn(Cc3ccc(-c4nc(C(F)(F)F)cn4C(C)C)cc3)c2n1` + Cc1[nH]c2ccc(F)cc2c1-c1nc2c3cccnc3c3ncccc3c2[nH]1, the viability, T/C was 91.5%.
Compound `CC(C)n1c(=O)n(C)c2cnc3cc(F)c(-c4ccc(OCCCN5CCCCC5)nc4)cc3c21` + Cc1cnc(CNC(=O)c2c(=O)c3ccc(N4CCCN(C)CC4)nc3n3c2sc2ccccc23)cn1 has a viability, T/C of 57.4%.
For `CC1COCCN1c1cc(-c2ccnn2C)c2ccnc(-c3ccn[nH]3)c2n1` (stereo unspecified) + Cc1cnc(CNC(=O)c2c(=O)c3ccc(N4CCCN(C)CC4)nc3n3c2sc2ccccc23)cn1, the viability, T/C was 27.2%.
Compound `CC1COCCN1c1cc(C2(S(C)(=N)=O)CC2)nc(-c2ccnc3[nH]ccc23)n1` (stereo unspecified) + Cc1cnc(CNC(=O)c2c(=O)c3ccc(N4CCCN(C)CC4)nc3n3c2sc2ccccc23)cn1 has a viability, T/C of 46.9%.

Same assay, conditions: second compound 3.16 µM; first compound 3.16 µM; stronger effect = lower value; spheroids with HUVEC and MSC
Work on `COc1ncnc(C2CC2)c1-c1ncc2cnn(Cc3ccc(-c4nc(C(F)(F)F)cn4C(C)C)cc3)c2n1` + Cc1[nH]c2ccc(F)cc2c1-c1nc2c3cccnc3c3ncccc3c2[nH]1 yielded a viability, T/C of 96.9%.
With `CC(C)n1c(=O)n(C)c2cnc3cc(F)c(-c4ccc(OCCCN5CCCCC5)nc4)cc3c21` + Cc1cnc(CNC(=O)c2c(=O)c3ccc(N4CCCN(C)CC4)nc3n3c2sc2ccccc23)cn1 the viability, T/C was 58.3%.
`CC1COCCN1c1cc(-c2ccnn2C)c2ccnc(-c3ccn[nH]3)c2n1` (stereo unspecified) + Cc1cnc(CNC(=O)c2c(=O)c3ccc(N4CCCN(C)CC4)nc3n3c2sc2ccccc23)cn1 gave a viability, T/C of 20.2%.
`CC1COCCN1c1cc(C2(S(C)(=N)=O)CC2)nc(-c2ccnc3[nH]ccc23)n1` (stereo unspecified) + Cc1cnc(CNC(=O)c2c(=O)c3ccc(N4CCCN(C)CC4)nc3n3c2sc2ccccc23)cn1 was tested, and the viability, T/C was 42%.

Same assay, conditions: second compound 3.16 µM; first compound 10 µM; stronger effect = lower value; spheroids with HUVEC and MSC
With `COc1ncnc(C2CC2)c1-c1ncc2cnn(Cc3ccc(-c4nc(C(F)(F)F)cn4C(C)C)cc3)c2n1` + Cc1[nH]c2ccc(F)cc2c1-c1nc2c3cccnc3c3ncccc3c2[nH]1 the viability, T/C was 89.8%.
`CC(C)n1c(=O)n(C)c2cnc3cc(F)c(-c4ccc(OCCCN5CCCCC5)nc4)cc3c21` + Cc1cnc(CNC(=O)c2c(=O)c3ccc(N4CCCN(C)CC4)nc3n3c2sc2ccccc23)cn1 was tested, and the viability, T/C was 44.4%.
With `CC1COCCN1c1cc(-c2ccnn2C)c2ccnc(-c3ccn[nH]3)c2n1` (stereo unspecified) + Cc1cnc(CNC(=O)c2c(=O)c3ccc(N4CCCN(C)CC4)nc3n3c2sc2ccccc23)cn1 the viability, T/C was 20.3%.
Work on `CC1COCCN1c1cc(C2(S(C)(=N)=O)CC2)nc(-c2ccnc3[nH]ccc23)n1` (stereo unspecified) + Cc1cnc(CNC(=O)c2c(=O)c3ccc(N4CCCN(C)CC4)nc3n3c2sc2ccccc23)cn1 yielded a viability, T/C of 38.4%.

Same assay, conditions: second compound 10 µM; first compound 0.000999 µM; stronger effect = lower value; spheroids with HUVEC and MSC
With `Cn1ncnc1[C@H]1c2n[nH]c(=O)c3cc(F)cc(c23)N[C@@H]1c1ccc(F)cc1` + Cc1cnc(CNC(=O)c2c(=O)c3ccc(N4CCCN(C)CC4)nc3n3c2sc2ccccc23)cn1 the viability, T/C was 0.31%.

Same assay, conditions: second compound 10 µM; first compound 0.00316 µM; stronger effect = lower value; spheroids with HUVEC and MSC
`Cn1ncnc1[C@H]1c2n[nH]c(=O)c3cc(F)cc(c23)N[C@@H]1c1ccc(F)cc1` + Cc1cnc(CNC(=O)c2c(=O)c3ccc(N4CCCN(C)CC4)nc3n3c2sc2ccccc23)cn1 showed a viability, T/C of 0.55%.

Same assay, conditions: second compound 10 µM; first compound 0.00999 µM; stronger effect = lower value; spheroids with HUVEC and MSC
`Cn1ncnc1[C@H]1c2n[nH]c(=O)c3cc(F)cc(c23)N[C@@H]1c1ccc(F)cc1` + Cc1cnc(CNC(=O)c2c(=O)c3ccc(N4CCCN(C)CC4)nc3n3c2sc2ccccc23)cn1 was tested, and the viability, T/C was 31%.
